Source: patent US7534805B2, “Imidazole derivatives, their preparation and their use as medicaments” (Societe de Conseils de Recherches Et d'Applications …, priority 2003, dated 2009)

Row | melting point [°C] | SMILES
1 | 174 to 176 | Brc1ccc(Oc2ccc(-c3c[nH]c(COc4ccccc4)n3)cc2)cc1.O=C(O)C(F)(F)F
2 | 227 to 229 | Cl.c1ccc(OCc2nc(-c3ccc(OCCN4CCCCC4)cc3)c[nH]2)cc1
3 | 206 to 208 | CN(C)CCOc1ccc(-c2c[nH]c(COc3ccccc3)n2)cc1.Cl
4 | < 50 | O=C(O)C(F)(F)F.O=C(c1ccccc1)c1ccc(-c2c[nH]c(COc3ccccc3)n2)cc1
5 | 198 to 200 | O=C(Nc1ccc(F)cc1)c1ccc(-c2c[nH]c(COc3ccccc3)n2)cc1.O=C(O)C(F)(F)F
6 | > 300 | Cl.Nc1cccc(Oc2ccc(-c3c[nH]c(COc4ccccc4)n3)cc2)c1
7 | 178 to 180 | Nc1ccc(Oc2ccc(-c3c[nH]c(COc4ccccc4)n3)cc2)cc1[N+](=O)[O-].O=C(O)C(F)(F)F
8 | 88 to 89 | Cl.Nc1ccccc1Oc1ccc(-c2c[nH]c(COc3ccccc3)n2)cc1
9 | > 300 | Cl.NCc1ccc(Oc2ccc(-c3c[nH]c(COc4ccccc4)n3)cc2)cc1
10 | 158 to 160 | Cl.Clc1ccccc1Oc1ccc(-c2c[nH]c(COc3ccccc3)n2)cc1
11 | > 250 | Cl.NCC(=O)Nc1ccc(Oc2ccc(-c3c[nH]c(COc4ccccc4)n3)cc2)cc1
12 | 112 to 114 | O=C(O)C(F)(F)F.c1ccc(OCc2nc(-c3ccc(Oc4ccccc4)cc3)c[nH]2)cc1
13 | 150 to 152 | c1ccc(SCc2nc(-c3ccc(-c4ccccc4)cc3)c[nH]2)cc1 [Example 2, 4-(1,1′-biphenyl-4-yl)-2-[(phenylthio)methyl]-1H-imidazole]
14 | 185 to 187 | c1ccc(OCc2nc(-c3ccc(-c4ccccc4)cc3)c[nH]2)cc1 [Example 3, 4-(1,1′-biphenyl-4-yl)-2-(phenoxymethyl)-1H-imidazole]
15 | 108 to 110 | Fc1ccc(Oc2ccc(-c3c[nH]c(CSc4ccccc4)n3)cc2)cc1 [Example 4, 4-[4-(4-fluorophenoxy)phenyl]-2-[(phenylthio)methyl]-1H-imidazole]
16 | 193 to 195 | Fc1ccc(OCc2nc(-c3ccc(Oc4ccc(F)cc4)cc3)c[nH]2)cc1 [Example 5, 2-[(4-fluorophenoxy)methyl]-4-[4-(4-fluorophenoxy)phenyl]-1H-imidazole]
17 | 144 to 146 | c1ccc(OCc2nc(-c3ccc(Sc4ccccc4)cc3)c[nH]2)cc1 [Example 6, 2-(phenoxymethyl)-4-[4-(phenylthio)phenyl]-1H-imidazole]
18 | 192 to 194 | O=S(=O)(c1ccccc1)c1ccc(-c2c[nH]c(COc3ccccc3)n2)cc1 [Example 7, 2-(phenoxymethyl)-4-[4-(phenylsulphonyl)phenyl]-1H-imidazole]
19 | 182 to 183 | Fc1ccccc1COc1ccc(-c2c[nH]c(COc3ccccc3)n2)cc1 [Example 8, 4-{4-[(2-fluorobenzyl)oxy]phenyl}-2-(phenoxymethyl)-1H-imidazole]
20 | 194 to 196 | c1ccc(OCc2nc(-c3ccc(-n4ccnc4)cc3)c[nH]2)cc1 [Example 11, 4-[4-(1H-imidazol-1-yl)phenyl]-2-(phenoxymethyl)-1H-imidazole]
21 | 132 to 134 | COc1ccc(Oc2ccc(-c3c[nH]c(COc4ccccc4)n3)cc2)cc1 [Example 12, 4-[4-(4-methoxyphenoxy)phenyl]-2-(phenoxymethyl)-1H-imidazole]
22 | 151 to 153 | CCCCCCc1ccc(-c2c[nH]c(COc3ccccc3)n2)cc1 [Example 13, 4-(4-hexylphenyl)-2-(phenoxymethyl)-1H-imidazole]
23 | 187 to 189 | O=[N+]([O-])c1ccc(Oc2ccc(-c3c[nH]c(COc4ccccc4)n3)cc2)cc1 [Example 15, 4-[4-(4-nitrophenoxy)phenyl]-2-(phenoxymethyl)-1H-imidazole]
24 | 144 to 146 | c1ccc(OCc2nc(-c3ccc(OCCN4CCOCC4)cc3)c[nH]2)cc1 [Example 16, 4-(2-{4-[2-(phenoxymethyl)-1H-imidazol-4-yl]phenoxy}ethyl) morpholine]
25 | 159 to 161 | COCCOc1ccc(-c2c[nH]c(COc3ccccc3)n2)cc1 [Example 19, 4-[4-(2-methoxyethoxy)phenyl]-2-(phenoxymethyl)-1H-imidazole]

Row | melting point [°C] | SMILES
26 | < 40 | Cc1[nH]c(COc2ccccc2)nc1-c1ccc(Oc2ccc(F)cc2)cc1 [Example 21, 4-[4-(4-fluorophenoxy)phenyl]-5-methyl-2-(phenoxymethyl)-1H-imidazole]
27 | 224 to 225 | O=C(Nc1ccc(-c2c[nH]c(COc3ccccc3)n2)cc1)c1ccc(F)cc1 [Example 22, 4-fluoro-N-{4-[2-(phenoxymethyl)-1H-imidazol-4-yl]phenyl}benzamide]
28 | 179 to 181 | N#Cc1ccc(Oc2ccc(-c3c[nH]c(COc4ccccc4)n3)cc2)cc1 [Example 23, 4-{4-[2-(phenoxymethyl)-1H-imidazol-4-yl]phenoxy}benzonitrile]
29 | 133 to 135 | CCOC(=O)c1ccc(-c2c[nH]c(COc3ccccc3)n2)cc1 [Example 24, ethyl 4-[2-(phenoxymethyl)-1H-imidazol-4-yl]benzoate]
30 | 100 to 102 | CCOC(=O)c1ccc(Oc2ccc(-c3c[nH]c(COc4ccccc4)n3)cc2)cc1 [Example 25, ethyl 4-{4-[2-(phenoxymethyl)-1H-imidazol-4-yl]phenoxy}benzoate]
31 | 122 to 124 | CSc1ccc(Oc2ccc(-c3c[nH]c(COc4ccccc4)n3)cc2)cc1 [Example 26, 4-{4-[4-(methylthio)phenoxy]phenyl}-2-(phenoxymethyl)-1H-imidazole]
32 | 143 to 145 | CS(=O)(=O)c1ccc(Oc2ccc(-c3c[nH]c(COc4ccccc4)n3)cc2)cc1 [Example 27, 4-{4-[4-(methylsulphonyl)phenoxy]phenyl}-2-(phenoxymethyl)-1H-imidazole]
33 | 140 to 142 | O=[N+]([O-])c1cccc(Oc2ccc(-c3c[nH]c(COc4ccccc4)n3)cc2)c1 [Example 31, 4-[4-(3-nitrophenoxy)phenyl]-2-(phenoxymethyl)-1H-imidazole]
34 | 134 to 136 | c1ccc(COc2ccc(Oc3ccc(-c4c[nH]c(COc5ccccc5)n4)cc3)cc2)cc1 [Example 33, 4-{4-[4-(benzyloxy)phenoxy]phenyl}-2-(phenoxymethyl)-1H-imidazole]
35 | 211 to 213 | Oc1ccc(Oc2ccc(-c3c[nH]c(COc4ccccc4)n3)cc2)cc1 [Example 34, 4-{4-[2-(phenoxymethyl)-1H-imidazol-4-yl]phenoxy}phenol]
36 | 177 to 179 | Fc1cccc(Oc2ccc(-c3c[nH]c(COc4ccccc4)n3)cc2)c1 [Example 35, 4-[4-(3-fluorophenoxy)phenyl]-2-(phenoxymethyl)-1H-imidazole]
37 | 161 to 163 | N#Cc1cccc(Oc2ccc(-c3c[nH]c(COc4ccccc4)n3)cc2)c1 [Example 39, 3-{4-[2-(phenoxymethyl)-1H-imidazol-4-yl]phenoxy}benzonitrile]
38 | 128 to 129 | O=[N+]([O-])c1ccccc1Oc1ccc(-c2c[nH]c(COc3ccccc3)n2)cc1 [Example 40, 4-[4-(2-nitrophenoxy)phenyl]-2-(phenoxymethyl)-1H-imidazole]
39 | 133 to 135 | Brc1cccc(Oc2ccc(-c3c[nH]c(COc4ccccc4)n3)cc2)c1 [Example 44, 4-[4-(3-bromophenoxy)phenyl]-2-(phenoxymethyl)-1H-imidazole]
40 | 146 to 148 | Clc1cccc(Oc2ccc(-c3c[nH]c(COc4ccccc4)n3)cc2)c1 [Example 46, 4-[4-(3-chlorophenoxy)phenyl]-2-(phenoxymethyl)-1H-imidazole]
41 | 160 to 161 | Fc1cc(F)cc(Oc2ccc(-c3c[nH]c(COc4ccccc4)n3)cc2)c1 [Example 47, 4-[4-(3,5-difluorophenoxy)phenyl]-2-(phenoxymethyl)-1H-imidazole]
42 | 147 to 148 | c1ccc(Cc2ccc(-c3c[nH]c(COc4ccccc4)n3)cc2)cc1 [Example 48, 4-(4-benzylphenyl)-2-(phenoxymethyl)-1H-imidazole]
43 | 160 to 162 | Cc1cccc(Oc2ccc(-c3c[nH]c(COc4ccccc4)n3)cc2)c1 [Example 49, 4-[4-(3-methylphenoxy)phenyl]-2-(phenoxymethyl)-1H-imidazole]
44 | 154 to 156 | Fc1ccccc1Oc1ccc(-c2c[nH]c(COc3ccccc3)n2)cc1 [Example 51, 4-[4-(2-fluorophenoxy)phenyl]-2-(phenoxymethyl)-1H-imidazole]
45 | 188 to 190 | Fc1ccc(Oc2ccc(-c3c[nH]c(COc4ccccc4)n3)cc2)cc1F [Example 52, 4-[4-(3,4-difluorophenoxy)phenyl]-2-(phenoxymethyl)-1H-imidazole]
46 | 128 to 130 | Fc1ccc(F)c(Oc2ccc(-c3c[nH]c(COc4ccccc4)n3)cc2)c1 [Example 54, 4-[4-(2,5-difluorophenoxy)phenyl]-2-(phenoxymethyl)-1H-imidazole]
47 | 131 to 133 | Fc1ccc(Oc2ccc(-c3c[nH]c(COc4ccccc4)n3)cc2)c(F)c1 [Example 55, 4-[4-(2,4-difluorophenoxy)phenyl]-2-(phenoxymethyl)-1H-imidazole]
48 | 127 to 129 | Fc1cccc(Oc2ccc(-c3c[nH]c(COc4ccccc4)n3)cc2)c1F [Example 56, 4-[4-(2,3-difluorophenoxy)phenyl]-2-(phenoxymethyl)-1H-imidazole]
49 | 143 to 145 | Fc1cccc(F)c1Oc1ccc(-c2c[nH]c(COc3ccccc3)n2)cc1 [Example 57, 4-[4-(2,6-difluorophenoxy)phenyl]-2-(phenoxymethyl)-1H-imidazole]

Row | SMILES | melting point [°C]
50 | CCCCOc1ccc(-c2c[nH]c(COc3ccccc3)n2)cc1 [Example 14, 4-(4-butoxyphenyl)-2-(phenoxymethyl)-1H-imidazole] | 179 to 181
51 | FC(F)(F)CCCOc1ccc(-c2c[nH]c(COc3ccccc3)n2)cc1 [Example 20, 2-(phenoxymethyl)-4-[4-(4,4,4-trifluorobutoxy)phenyl]-1H-imidazole] | 194 to 196
